The values below come from patent US9346813B2, “Substituted pyrrolo[2,3-d]pyrimindines as CDK9 kinase inhibitors” (AbbVie Inc., priority 2014, dated 2016).

Where only a bound is given, the exact number is not on record here.

The target of one assay is T1, CDK9/Cyclin T1 (Homo sapiens, UniProt P50750).
T1 construct: purchased Carna Biosciences 04-110
Description: CDK9 enzyme protocol (LANCE ULight TR-FRET kinase assay). The class given is biochemical. The conditions noted are these: 4 nM CDK9/Cyclin T1, 1000 μM ATP, 100 nM U-light MBP peptide, 30 minutes. The procedure: CDK9 enzyme activities were measured using LANCE ULight TR-FRET kinase assay reagents (PerkinElmer, Waltham, Mass.). Compounds were directly added in 100% DMSO to white low volume assay plates (Perkin Elmer Proxiplate 6008289) using a Labcyte Echo acoustic dispenser. Assay reagents in serine/threonine kinase assay buffer containing 20 mM HEPES, 10 mM MgCl2, 100 mM Na3VO4, and 0.0075% Triton X-100. were added for final reaction mixture concentrations of 1000 μM ATP, 100 nM U-light MBP peptide (Perkin Elmer TRF0109M) and reaction initiated with 4 nM CDK9/Cyclin T1 (Carna Biosciences 04-110). The kinase reaction was carried out for 30 minutes before addition of stopping buffer to a final of 20 mM EDTA and 0.5 nM of LANCE Ultra Europium anti-phospho-MBP antibody (PerkinElmer TRF0201M) in LANCE detection buffer (PerkinElmer CR97-100). The reaction was equilibrated for 1 hour and the signal read in the Perkin Elmer Envision in TR-FRET mode (excitation at 320 nm and emission at 615/665 nm).
For orientation: TR-FRET usually uses a lanthanide donor and a delayed reading to cut background.

In the next assay the test system is H929 cells. In words: Cell viability assay in H929 cells (Cell TiterGlo). The class given is cell-based. Conditions: Homo sapiens, NCI-H929, 24 hours at 37° C. Here is the method:
Cell viability assays were performed using A431 or H929 cells. A431 cells were seeded in 96-well plates at 10,000 cells/well, and after overnight incubation, treated with compounds at 2-times the final concentration to result in a dose response of 3-fold dilutions from 10 μM to 0.0005 μM (50 μL/well, 0.1% final DMSO concentration). H929 cells were seeded in 96-well plates at 10,000 cells/well and treated immediately with compounds as described above. After 24 hours at 37° C., cell viability was measured using Cell TiterGlo reagent (Promega) with a luminescence reader. Alternately, cell viability assays were performed in 384-well format. A431 cells were seeded in 384-well plates at 2500 cells/well and, after overnight incubation, treated with compounds in a dose response of 3-fold dilutions from 10 μM to 0.0005 μM (25 nL/well, 0.1% final DMSO concentration). For the H929 viability assay, 25 nL/well of the compounds was dispensed into 384-well plates in a dose response as described above and cells were immediately seeded in 384-well plates at 2500 cells/well. After 24 hours at 37° C., cell viability was measured using Cell TiterGlo reagent (Promega) with a luminescence reader.
Background: In ATP-based viability assays light output follows the ATP content of the culture.

What is called IC50 is the concentration needed to halve the response being measured. The term EC50 denotes the concentration at which the effect is half-maximal. The low end stands for higher potency in that assay, the high end for lower potency in that assay.

T1 sequence (P50750 whole entry): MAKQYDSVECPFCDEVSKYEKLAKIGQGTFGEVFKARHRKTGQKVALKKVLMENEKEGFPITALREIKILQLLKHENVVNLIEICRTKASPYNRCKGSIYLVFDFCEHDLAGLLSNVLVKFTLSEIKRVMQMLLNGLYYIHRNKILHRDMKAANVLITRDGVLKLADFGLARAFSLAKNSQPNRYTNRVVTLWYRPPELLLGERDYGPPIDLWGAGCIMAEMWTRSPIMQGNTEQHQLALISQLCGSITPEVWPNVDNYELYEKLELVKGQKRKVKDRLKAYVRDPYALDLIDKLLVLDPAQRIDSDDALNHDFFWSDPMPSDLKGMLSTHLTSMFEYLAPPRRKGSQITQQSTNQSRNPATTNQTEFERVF
T1 sequence (O60563 whole entry partner): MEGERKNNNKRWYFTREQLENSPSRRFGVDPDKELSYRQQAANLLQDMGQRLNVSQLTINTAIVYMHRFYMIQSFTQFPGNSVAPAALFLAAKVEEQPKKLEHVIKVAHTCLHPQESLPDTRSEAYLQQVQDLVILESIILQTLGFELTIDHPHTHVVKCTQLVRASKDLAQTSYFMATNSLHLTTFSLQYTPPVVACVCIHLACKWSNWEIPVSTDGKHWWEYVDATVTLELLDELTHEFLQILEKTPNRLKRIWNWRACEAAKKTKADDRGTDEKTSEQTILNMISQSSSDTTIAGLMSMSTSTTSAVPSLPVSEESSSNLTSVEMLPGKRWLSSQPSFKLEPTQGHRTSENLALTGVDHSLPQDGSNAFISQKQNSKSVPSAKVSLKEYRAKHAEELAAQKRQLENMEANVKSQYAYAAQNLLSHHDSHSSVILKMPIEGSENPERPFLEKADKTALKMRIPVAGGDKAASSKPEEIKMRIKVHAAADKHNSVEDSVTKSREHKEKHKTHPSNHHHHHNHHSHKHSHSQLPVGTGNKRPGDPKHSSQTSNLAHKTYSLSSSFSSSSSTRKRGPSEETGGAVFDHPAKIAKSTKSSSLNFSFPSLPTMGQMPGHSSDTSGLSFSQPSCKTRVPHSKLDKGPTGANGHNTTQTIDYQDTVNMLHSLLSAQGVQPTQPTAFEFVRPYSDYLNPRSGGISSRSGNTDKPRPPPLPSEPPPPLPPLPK

For the molecule `COc1ccc(F)cc1-c1ncnc2[nH]c(C3=CCC(N[C@H](C(=O)O)C(C)C)CC3)cc12` (stereo partly drawn) [Example 78, N-{4-[4-(5-fluoro-2-methoxyphenyl)-7H-pyrrolo[2,3-d]pyrimidin-6-yl]cyclohex-3-en-1-yl}-L-valine], inhibition at CDK9/Cyclin T1 was half-maximal at 750 nM (IC50). In the assay on H929 cells, this molecule had an EC50 of 6800 nM.
Consider `COc1ccc(F)cc1-c1ncnc2[nH]c(C3=CCN(Cc4ccncc4)CC3)cc12` [Example 27, 4-(5-fluoro-2-methoxyphenyl)-6-[1-(pyridin-4-ylmethyl)-1,2,3,6-tetrahydropyridin-4-yl]-7H-pyrrolo[2,3-d]pyrimidine], for which the IC50 against CDK9/Cyclin T1 is 220 nM. Besides, the EC50 in the assay with H929 cells turned out to be 720 nM.
For the molecule `COc1ccc(F)cc1-c1ncnc2[nH]c(C3=CCC(F)(F)CC3)cc12` [Example 61, 6-(4,4-difluorocyclohex-1-en-1-yl)-4-(5-fluoro-2-methoxyphenyl)-7H-pyrrolo[2,3-d]pyrimidine], the IC50 at CDK9/Cyclin T1 was 62 nM. In the assay on H929 cells, this molecule displayed an EC50 of 1400 nM.
The like results for `COc1ccc(F)cc1-c1ncnc2[nH]c(C3=CCN(C(=O)[C@H]4CC[C@H](C(=O)OC)CC4)CC3)cc12` [Example 73, methyl trans-4-({4-[4-(5-fluoro-2-methoxyphenyl)-7H-pyrrolo[2,3-d]pyrimidin-6-yl]-3,6-dihydropyridin-1(2H)-yl}carbonyl)cyclohexanecarboxylate] were, in that order, 70 nM and 150 nM.
On CDK9/Cyclin T1, `COc1ccc(F)cc1-c1ncnc2[nH]c(C3=CCN(C4CCC(C(=O)O)CC4)CC3)cc12` (stereo not shown) [Example 86, 4-{4-[4-(5-fluoro-2-methoxyphenyl)-7H-pyrrolo[2,3-d]pyrimidin-6-yl]-3,6-dihydropyridin-1(2H)-yl}cyclohexanecarboxylic acid] yielded an IC50 of 400 nM. Further, the response in the assay on H929 cells was half-maximal at 3600 nM (EC50).
The like results for `C=CCNC(=O)N1CC=C(c2cc3c(-c4cc(F)ccc4OC)ncnc3[nH]2)CC1` [Example 19, 4-[4-(5-fluoro-2-methoxyphenyl)-7H-pyrrolo[2,3-d]pyrimidin-6-yl]-N-(prop-2-en-1-yl)-3,6-dihydropyridine-1(2H)-carboxamide] were, in that order, 88 nM and 180 nM.
The matching figures for `COc1ccc(F)cc1-c1ncnc2[nH]c(C3=CCN(C(=O)C4CCN4)CC3)cc12` (stereo not shown) [Example 12, azetidin-2-yl{4-[4-(5-fluoro-2-methoxyphenyl)-7H-pyrrolo[2,3-d]pyrimidin-6-yl]-3,6-dihydropyridin-1(2H)-yl}methanone]: 88 nM and 930 nM.
On CDK9/Cyclin T1, `COc1ccc(F)cc1-c1ncnc2[nH]c(C3=CCN(C(=O)C4CCC(=O)NC4)CC3)cc12` (stereo not shown) [Example 14, 5-({4-[4-(5-fluoro-2-methoxyphenyl)-7H-pyrrolo[2,3-d]pyrimidin-6-yl]-3,6-dihydropyridin-1(2H)-yl}carbonyl)piperidin-2-one] returned an IC50 of 65 nM. Besides, in the assay on H929 cells, the EC50 stood at 1700 nM.
Molecule `COc1ccc(F)cc1-c1ncnc2[nH]c(C3=CCN(Cc4ccc(C#N)cc4)CC3)cc12` [Example 22, 4-({4-[4-(5-fluoro-2-methoxyphenyl)-7H-pyrrolo[2,3-d]pyrimidin-6-yl]-3,6-dihydropyridin-1(2H)-yl}methyl)benzonitrile] returned an IC50 on CDK9/Cyclin T1 of 240 nM. In the assay with H929 cells, this molecule had an EC50 of 1100 nM.
The matching figures for `CN(C)C(=O)N1CC=C(c2cc3c(-c4cccc(F)c4F)ncnc3[nH]2)CC1` [Example 76, 4-[4-(2,3-difluorophenyl)-7H-pyrrolo[2,3-d]pyrimidin-6-yl]-N,N-dimethyl-3,6-dihydropyridine-1(2H)-carboxamide]: 68 nM and 3500 nM.
The like results for `COc1ccc(F)cc1-c1ncnc2[nH]c(C3=CCN(S(=O)(=O)C4CC4)CC3)cc12` [Example 8, 6-[1-(cyclopropylsulfonyl)-1,2,3,6-tetrahydropyridin-4-yl]-4-(5-fluoro-2-methoxyphenyl)-7H-pyrrolo[2,3-d]pyrimidine] were, in that order, 19 nM and 690 nM.
The matching figures for `COc1ccc(F)cc1-c1ncnc2[nH]c(C3=CCN(S(=O)(=O)C4CCS(=O)(=O)C4)CC3)cc12` (stereo not shown) [Example 38, 6-{1-[(1,1-dioxidotetrahydrothiophen-3-yl)sulfonyl]-1,2,3,6-tetrahydropyridin-4-yl}-4-(5-fluoro-2-methoxyphenyl)-7H-pyrrolo[2,3-d]pyrimidine]: 43 nM and 376 nM.
For `COc1ccc(F)cc1-c1ncnc2[nH]c(C3=CCN(Cc4cc(F)cc(F)c4)CC3)cc12` [Example 36, 6-[1-(3,5-difluorobenzyl)-1,2,3,6-tetrahydropyridin-4-yl]-4-(5-fluoro-2-methoxyphenyl)-7H-pyrrolo[2,3-d]pyrimidine], on CDK9/Cyclin T1, it took 170 nM to reach half-maximal inhibition (IC50). In the assay on H929 cells, this molecule returned an EC50 of 1000 nM.
The like results for `COc1ccc(F)cc1-c1ncnc2[nH]c(C3=CCN(Cc4ccc(N)cc4)CC3)cc12` [Example 70, 4-({4-[4-(5-fluoro-2-methoxyphenyl)-7H-pyrrolo[2,3-d]pyrimidin-6-yl]-3,6-dihydropyridin-1(2H)-yl}methyl)aniline] were, in that order, 91 nM and 160 nM.
On CDK9/Cyclin T1, `COc1ccc(F)cc1-c1ncnc2[nH]c(C3=CCC(N[C@@H](C(=O)O)C(C)C)CC3)cc12` (stereo partly drawn) [Example 84, N-{4-[4-(5-fluoro-2-methoxyphenyl)-7H-pyrrolo[2,3-d]pyrimidin-6-yl]cyclohex-3-en-1-yl}-D-valine] displayed an IC50 of 440 nM. In the assay on H929 cells, this molecule returned an EC50 of 6400 nM.
The like results for `CCN1CCC(C(=O)N2CC=C(c3cc4c(-c5cc(F)ccc5OC)ncnc4[nH]3)CC2)C1` (stereo not shown) [Example 16, (1-ethylpyrrolidin-3-yl){4-[4-(5-fluoro-2-methoxyphenyl)-7H-pyrrolo[2,3-d]pyrimidin-6-yl]-3,6-dihydropyridin-1(2H)-yl}methanone] were, in that order, 150 nM and 1100 nM.
The like results for `CS(=O)(=O)N1CC=C(c2cc3c(-c4cc(NCc5ccc(C#N)cc5)ccc4F)ncnc3[nH]2)CC1` [Example 30, 4-{[(4-fluoro-3-{6-[1-(methylsulfonyl)-1,2,3,6-tetrahydropyridin-4-yl]-7H-pyrrolo[2,3-d]pyrimidin-4-yl}phenyl)amino]methyl}benzonitrile] were, in that order, 130 nM and 230 nM.
The matching figures for `COc1ccc(F)cc1-c1ncnc2[nH]c(C3=CCN(C(=O)C4CC4)CC3)cc12` [Example 11, cyclopropyl{4-[4-(5-fluoro-2-methoxyphenyl)-7H-pyrrolo[2,3-d]pyrimidin-6-yl]-3,6-dihydropyridin-1(2H)-yl}methanone]: 43 nM and 310 nM.
Consider `COc1ccc(F)cc1-c1ncnc2[nH]c(C3=CCN(Cc4cccc(F)c4)CC3)cc12` [Example 35, 6-[1-(3-fluorobenzyl)-1,2,3,6-tetrahydropyridin-4-yl]-4-(5-fluoro-2-methoxyphenyl)-7H-pyrrolo[2,3-d]pyrimidine], for which half-maximal inhibition on CDK9/Cyclin T1 (IC50) was put at 150 nM. This molecule also showed an EC50 in the assay on H929 cells of 930 nM.
The matching figures for `COc1ccc(Cl)cc1-c1ncnc2[nH]c(C3=CCN(S(C)(=O)=O)CC3)cc12` [Example 45, 4-(5-chloro-2-methoxyphenyl)-6-[1-(methylsulfonyl)-1,2,3,6-tetrahydropyridin-4-yl]-7H-pyrrolo[2,3-d]pyrimidine]: 180 nM and more than 10000 nM.
The like results for `COc1ccc(F)cc1-c1ncnc2[nH]c(C3=CCC(C(=O)O)CC3)cc12` (stereo not shown) [Example 79, 4-[4-(5-fluoro-2-methoxyphenyl)-7H-pyrrolo[2,3-d]pyrimidin-6-yl]cyclohex-3-ene-1-carboxylic acid] were, in that order, 290 nM and 6700 nM.
With `CS(=O)(=O)N1CC=C(c2cc3c(-c4cc(NCc5cccc(C#N)c5)ccc4F)ncnc3[nH]2)CC1` [Example 31, 3-{[(4-fluoro-3-{6-[1-(methylsulfonyl)-1,2,3,6-tetrahydropyridin-4-yl]-7H-pyrrolo[2,3-d]pyrimidin-4-yl}phenyl)amino]methyl}benzonitrile], the IC50 against CDK9/Cyclin T1 was 110 nM. This molecule came in with an EC50 with H929 cells of 160 nM.
The matching figures for `COc1ccc(F)cc1-c1ncnc2[nH]c(C3=CCC(N[C@H](C(=O)O)C4CCCCC4)CC3)cc12` (stereo partly drawn) [Example 77, (2S)-cyclohexyl({4-[4-(5-fluoro-2-methoxyphenyl)-7H-pyrrolo[2,3-d]pyrimidin-6-yl]cyclohex-3-en-1-yl}amino)acetic acid]: 290 nM and 600 nM.
